Among the data in article PMC11385386 (Nature Communications, 2024) are Kd values, retold here.

Molecules are shown by their SMILES.

This experiment deals with IDH1^R132H (Homo sapiens, UniProt O75874, R132H). The experiment in a line: Affinity of IDH1 R132H for NADPH. The experiment is classed as binding.
Chain of IDH1^R132H (O75874 whole entry R132H): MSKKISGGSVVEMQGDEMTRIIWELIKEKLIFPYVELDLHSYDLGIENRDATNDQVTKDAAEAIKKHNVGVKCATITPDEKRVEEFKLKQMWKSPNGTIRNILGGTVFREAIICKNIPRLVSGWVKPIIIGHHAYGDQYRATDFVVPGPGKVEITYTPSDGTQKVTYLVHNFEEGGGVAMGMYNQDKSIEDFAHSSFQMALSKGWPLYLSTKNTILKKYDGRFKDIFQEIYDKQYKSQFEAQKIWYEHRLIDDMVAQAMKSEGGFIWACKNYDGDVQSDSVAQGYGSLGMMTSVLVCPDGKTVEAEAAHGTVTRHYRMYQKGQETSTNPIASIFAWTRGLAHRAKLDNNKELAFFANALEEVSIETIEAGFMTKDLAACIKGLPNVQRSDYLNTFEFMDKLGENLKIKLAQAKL

A word on the Kd: it is the free concentration of one partner at which half of the binding sites on the other are occupied at equilibrium, for simple one-to-one binding. Turning to `NC(=O)C1=CN([C@@H]2O[C@H](COP(=O)(O)OP(=O)(O)OC[C@H]3O[C@@H](n4cnc5c(N)ncnc54)[C@H](OP(=O)(O)O)[C@@H]3O)[C@@H](O)[C@H]2O)C=CC1` [NADPH], the Kd was ~0.05 µM.
